# Experimental data published in US8580816B2, “Carboxylic acid derivatives having an oxazolo[5,4-b]pyridine ring” (Sanofi, priority 2011, dated 2013).
# Molecular target: T1, human Edg 1 receptor (Homo sapiens, UniProt P21453)
# T1 construct: FLAG (N); expressed in transfected cells
# Test: GTP-γ-S assay using human Edg 1 receptors (scintillation proximity assay, CHO Flp-In membrane preparation)
# Assay type: biochemical
# Details: test compound at 10 μM; relative to high control 10 μM S1P = 100% activation; membranes of CHO Flp-In cells overexpressing human Edg 1; triplicate
# Description: A) GTP-γ-S Assay Using Human Edg 1 Receptors
# In order to determine the Edg 1 receptor activation by the compounds of the invention, a GTP-γ-S ((GTP-γ-S=guanosine 5′-[thio]triphosphate) assay for G-protein coupled receptor binding based on the scintillation proximity assay principle was used, employing a cell membrane preparation from a CHO Flp-In cell line which constitutively overexpresses the human Edg 1 receptor.
# A membrane preparation was obtained by standard methods from the afore-described CHO Flp-In cell line constitutively overexpressing the human Edg 1 receptor. Briefly, the cryopreserved cells were taken in culture and grown until confluency in T175 cell culture flasks (Becton Dickinson, cat. no. 35 5001). Cell culture was stopped by washing with calcium-free phosphate-buffered saline (PBS; Gibco, cat. no. 14190), and cells were harvested with a rubber-policeman in 4° C. cold and calcium-free PBS supplemented with a protease inhibitor cocktail (complete protease inhibitor; Roche, cat. no. 1697498; 1 tablet per 50 ml) and subsequently centrifuged at 4° C. for 15 min at 1100×g (Heraeus Minifuge T). For cell lysis, the pellet was resuspended in a 4° C. cold hypotonic buffer consisting of 5 mM HEPES (Sigma-Aldrich, cat. no. H-0981), 1 mM EDTA (disodium salt; Merck, cat. No. 8418) supplemented with protease inhibitor cocktail (as above) in which cells were stored for another 15 min on ice. After lysis, cells were centrifuged at 4° C. for 10 min at 400×g (Heraeus Minifuge T). The pellet was disrupted in a Dounce homogenizer, diluted with the supernatant of the previous centrifugation and subsequently centrifuged at 4° C. for 10 min at 500×g (Heraeus Minifuge T) in order to separate nuclei and still intact cells from the membranes mainly present in the supernatant. The supernatant was then diluted in hypotonic buffer and centrifuged (Beckmann, Avanti J251) at approximately 18 600×g for 2 h at 4° C. After centrifugation, the membrane pellet was resuspended in a storing buffer consisting of 20 mM HEPES; 150 mM NaCl (Merck, cat. no. 6400), 1 mM EDTA (as above) supplemented with protease inhibitor cocktail (as above). […] Protein concentration of the membrane preparation was determined in a sample by means of a commercial protein assay (Bio-Rad, DC Protein Assay, cat. nos. 500-0113, 500-0114, 500-0115).
# The Edg 1 membrane preparation obtained in (b) was employed in a commercially available scintillation proximity assay (SPA) kit for G-protein coupled receptor binding from Amersham Biosciences/GE Healthcare (code RPNQ0210), in which ligand-induced binding of ^35S-radiolabeled GTP-γ-S to the receptor-containing membrane, which is bound to scintillation beads, stimulates the emission of light and allows to quantify the in vitro activity of the Edg 1 agonistic compound. […]
# T1 sequence (P21453 whole entry): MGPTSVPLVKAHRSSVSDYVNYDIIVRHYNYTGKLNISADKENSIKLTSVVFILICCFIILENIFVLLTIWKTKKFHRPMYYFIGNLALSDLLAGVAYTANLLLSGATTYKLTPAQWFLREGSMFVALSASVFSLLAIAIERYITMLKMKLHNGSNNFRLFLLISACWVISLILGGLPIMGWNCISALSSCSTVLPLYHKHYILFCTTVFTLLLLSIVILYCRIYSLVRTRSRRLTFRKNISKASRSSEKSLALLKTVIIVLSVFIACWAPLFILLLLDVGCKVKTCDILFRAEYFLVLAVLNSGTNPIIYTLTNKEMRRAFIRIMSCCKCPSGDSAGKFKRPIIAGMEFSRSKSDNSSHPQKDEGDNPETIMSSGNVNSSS
row,SMILES,Edg 1 receptor activation in percent of the activation by 10 μM S1P (% activation)
1,"Cc1cc(-c2nc3ccc(Oc4ccccc4F)nc3o2)cc(C)c1OC(C)(C)C(=O)O [Example 3, 2-{4-[5-(2-Fluorophenoxy)oxazolo[5,4-b]pyridin-2-yl]-2,6-dimethylphenoxy}-2-methylpropionic acid]",39%
2,"Cc1cc(-c2nc3ccc(Oc4ccccc4F)nc3o2)cc(C)c1OCC(C)(C)C(=O)O [Example 4, 3-{4-[5-(2-Fluorophenoxy)oxazolo[5,4-b]pyridin-2-yl]-2,6-dimethylphenoxy}-2,2-dimethylpropionic acid]",86%
3,"Cc1cc(-c2nc3ccc(Oc4ccccc4F)nc3o2)cc(C)c1OC(C)C(=O)O (stereo not shown) [Example 2, 2-{4-[5-(2-Fluorophenoxy)oxazolo[5,4-b]pyridin-2-yl]-2,6-dimethylphenoxy}propionic acid]",51%
4,"Cc1cc(-c2nc3ccc(Oc4ccccc4F)nc3o2)cc(C)c1OCC(=O)O [Example 1, {4-[5-(2-Fluorophenoxy)oxazolo[5,4-b]pyridin-2-yl]-2,6-dimethylphenoxy}acetic acid]",74%
